Test results as given in patent publication US20050112573A1, “Method of detecting toxic substance” (priority 2001, published 2005).

Tested on: yeast genes (level of expressed mRNA)
Assay: DNA chip analysis of expressed mRNA of yeast genes after 2 h culture with a toxic chemical substance
Type: cell-based, Saccharomyces cerevisiae S288C
Settings: for The level of expressed mRNA in the presence of chemical substance/ (ratio to absence of chemical substance): stress protein genes, DNA chip
Protocol: Yeast (Saccharomyces cerevtisiae S288C (α SUC2mal mel gap2 CUP1)) were cultured at 25° C. on YPD medium (yeast extract 1%, polypepton 2%, glucose 2%). One of toxic chemical substances was added to the cell at logarithmic growth phase, and the cell was further cultured for two hours. Cell was cultured without any chemical substance in the same condition, and was used as control. Concentrations of the chemical substances were defined to inhibit the growth of the yeast but not lead to death.
After the completion of cultivation, the culture was centrifuged to collect the cells. To the cells, sodium acetate buffer (50 mM sodium acetate, 10 mM EDTA, 1% SDS) was added, and the mixture was shaken at 65° C. for five minutes, followed by returning to room temperature, and obtaining the supernatant, which procedure was repeated two times. To the supernatant, ½ amount of a solution of phenol/chloroform was added, and the mixture was centrifuged to give a supernatant, which was added with an equal amount of chloroform, and the mixture was centrifuged to give a supernatant. To the supernatant, an equal amount of isopropanol containing 0.3 M sodium acetate was added, and the mixture was allowed to stand at room temperature for 30 minutes, after which the mixture was centrifuged to give a sediment of the whole RNAs. Seventy % ethanol was added to the sediment, and the mixture was again centrifuged to give a sediment, which was then dried and dissolved in water. mRNA was isolated from the whole RNAs as followings. In view of the fact that a poly A chain is attached to the 3′ terminus of mRNA, a polynucleotide having a poly T structure which was immobilized on the surface of latex beads was used to trap the mRNA, and then the mRNA was washed and eluted with spine column (Oligotex-dT30<Super>mRNA Purification Kit, Takara). Reverse transcription of the mRNA was conducted with a reverse transcriptase (Super Script II Reverse Transcriptase; catalogue No. 18064-014, GibcoBRL) using fluorescence-labeled nucleotides to give cDNAs that were introduced with Cy3-dUTP or Cy5-dUTP during the reverse transcription.
The labeled cDNAs were dissolved in TE buffer (10 mM Tris-HCl/1 mM EDTA, pH8.0), and the solution was dropped on the DNA chip containing the whole genes of yeast (DNA Chip Research Inc. Japan) so that the cDNAs were hybridized on the DNA chip at 65° C. for over 12 hours. The fluoresces intensity of the DNA chip was read with a scanner, and the ratio relative to the fluorescence intensity resulting from the absence of chemical substance was estimated as the following, which is shown in Tables 1 to 9: [formula]
In the Tables, “Intensity” indicated in the rightmost column is a value of the level of expressed mRNA of each gene in control cells as divided by the average level of the expressions of the whole genes.

COc1cc(CNC(=O)CCCCC=CC(C)C)ccc1O [(12), 8-methyl-N-vanillyl-6-nonenamide]
The level of expressed mRNA in the presence of chemical substance/ (in its absence), gene YDR073W (yeast gene YDR073W, ratio of DNA chip fluorescence intensity to that without chemical substance): 0.8
The level of expressed mRNA in the presence of chemical substance/ in its absence, gene YDR079W (yeast gene YDR079W, energy system protein genes, 2 h culture with the chemical, ratio to control without chemical): 1.1
The level of expressed mRNA in the presence of chemical substance/ (ratio to absence), gene YDR079W (yeast gene YDR079W, mitochondria-located protein genes, 2 h culture with chemical): 1.1
The level of expressed mRNA in the presence of chemical substance/The level of expressed mRNA in the absence of chemical substance (yeast gene YDR084C): 0.7
The level of expressed mRNA in the presence of chemical substance/The level of expressed mRNA in the absence of chemical substance (yeast gene YDR085C): 1.6
The level of expressed mRNA in the presence of chemical substance/The level of expressed mRNA in the absence of chemical substance (yeast gene YDR104C): 1.1
The level of expressed mRNA in the presence of chemical substance/The level of expressed mRNA in the absence of chemical substance (yeast gene YDR115W): 0.9
The level of expressed mRNA in the presence of chemical substance/The level of expressed mRNA in the absence of chemical substance (yeast gene YDR259C): 1.0
The level of expressed mRNA in the presence of chemical substance/ (in its absence), gene YDR297W (yeast gene YDR297W, ratio of DNA chip fluorescence intensity to that without chemical substance): 1.0
The level of expressed mRNA in the presence of chemical substance/The level of expressed mRNA in the absence of chemical substance (yeast gene YDR315C): 0.6
The level of expressed mRNA in the presence of chemical substance/The level of expressed mRNA in the absence of chemical substance (yeast gene YDR358W): 1.1
The level of expressed mRNA in the presence of chemical substance/ (ratio to absence), gene YDR377W (yeast gene YDR377W, mitochondria-located protein genes, 2 h culture with chemical): 0.9
The level of expressed mRNA in the presence of chemical substance/ (in its absence), gene YDR387C (yeast gene YDR387C, ratio of DNA chip fluorescence intensity to that without chemical substance): 0.9
The level of expressed mRNA in the presence of chemical substance/The level of expressed mRNA in the absence of chemical substance (yeast gene YDR388W): 0.8
The level of expressed mRNA in the presence of chemical substance/The level of expressed mRNA in the absence of chemical substance (yeast gene YDR406W): 3.9
The level of expressed mRNA in the presence of chemical substance/The level of expressed mRNA in the absence of chemical substance (yeast gene YDR432W): 0.7
The level of expressed mRNA in the presence of chemical substance/The level of expressed mRNA in the absence of chemical substance (yeast gene YDR481C): 0.9
The level of expressed mRNA in the presence of chemical substance/The level of expressed mRNA in the absence of chemical substance (yeast gene YDR510W): 1.4
The level of expressed mRNA in the presence of chemical substance/ (ratio to absence of chemical substance) (yeast gene YEL039C): 0.6
The level of expressed mRNA in the presence of chemical substance/The level of expressed mRNA in the absence of chemical substance (yeast gene YEL042W): 1.0
The level of expressed mRNA in the presence of chemical substance/The level of expressed mRNA in the absence of chemical substance (yeast gene YEL066W): 0.8
The level of expressed mRNA in the presence of chemical substance/ (in its absence), gene YER015W (yeast gene YER015W, ratio of DNA chip fluorescence intensity to that without chemical substance): 0.9
The level of expressed mRNA in the presence of chemical substance/The level of expressed mRNA in the absence of chemical substance (yeast gene YER039C): 0.9
The level of expressed mRNA in the presence of chemical substance/ (ratio to absence of chemical substance) (yeast gene YER057C): 1.5
The level of expressed mRNA in the presence of chemical substance/The level of expressed mRNA in the absence of chemical substance (yeast gene YER107C): 0.7
The level of expressed mRNA in the presence of chemical substance/The level of expressed mRNA in the absence of chemical substance (yeast gene YER130C): 1.0
The level of expressed mRNA in the presence of chemical substance/The level of expressed mRNA in the absence of chemical substance (yeast gene YFL028C): 1.1
The level of expressed mRNA in the presence of chemical substance/The level of expressed mRNA in the absence of chemical substance (yeast gene YFL043C): 0.9
The level of expressed mRNA in the presence of chemical substance/The level of expressed mRNA in the absence of chemical substance (yeast gene YFR015C, two hours culture): 0.4
The level of expressed mRNA in the presence of chemical substance/The level of expressed mRNA in the absence of chemical substance (yeast gene YFR024C): 1.5
The level of expressed mRNA in the presence of chemical substance/ (in its absence), gene YGL035C (yeast gene YGL035C, ratio of DNA chip fluorescence intensity to that without chemical substance): 0.9
The level of expressed mRNA in the presence of chemical substance/ (in its absence), gene YGL115W (yeast gene YGL115W, ratio of DNA chip fluorescence intensity to that without chemical substance): 0.9
The level of expressed mRNA in the presence of chemical substance/ (ratio to absence of chemical substance) (yeast gene YGL115W): 0.9
The level of expressed mRNA in the presence of chemical substance/The level of expressed mRNA in the absence of chemical substance (yeast gene YGL158W): 1.3
The level of expressed mRNA in the presence of chemical substance/ (ratio to absence), gene YGL187C (yeast gene YGL187C, mitochondria-located protein genes, 2 h culture with chemical): 0.8
The level of expressed mRNA in the presence of chemical substance/ (in its absence), gene YGL205W (yeast gene YGL205W, ratio of DNA chip fluorescence intensity to that without chemical substance): 1.1
The level of expressed mRNA in the presence of chemical substance/The level of expressed mRNA in the absence of chemical substance (yeast gene YGL229C): 1.1
The level of expressed mRNA in the presence of chemical substance/The level of expressed mRNA in the absence of chemical substance (yeast gene YGR008C, two hours culture): 2.0
The level of expressed mRNA in the presence of chemical substance/ in its absence, gene YGR062C (yeast gene YGR062C, energy system protein genes, 2 h culture with the chemical, ratio to control without chemical): 1.0
The level of expressed mRNA in the presence of chemical substance/ (ratio to absence), gene YGR062C (yeast gene YGR062C, mitochondria-located protein genes, 2 h culture with chemical): 1.0
The level of expressed mRNA in the presence of chemical substance/ (in its absence), gene YGR096W (yeast gene YGR096W, ratio of DNA chip fluorescence intensity to that without chemical substance): 0.8
The level of expressed mRNA in the presence of chemical substance/The level of expressed mRNA in the absence of chemical substance (yeast gene YGR136W): 1.2
The level of expressed mRNA in the presence of chemical substance/The level of expressed mRNA in the absence of chemical substance (yeast gene YGR189C): 1.3
The level of expressed mRNA in the presence of chemical substance/The level of expressed mRNA in the absence of chemical substance (yeast gene YGR213C): 10.6
The level of expressed mRNA in the presence of chemical substance/The level of expressed mRNA in the absence of chemical substance (yeast gene YGR257C): 0.9
The level of expressed mRNA in the presence of chemical substance/The level of expressed mRNA in the absence of chemical substance (yeast gene YGR281W): 2.4
The level of expressed mRNA in the presence of chemical substance/ (in its absence), gene YGR287C (yeast gene YGR287C, ratio of DNA chip fluorescence intensity to that without chemical substance): 1.1
The level of expressed mRNA in the presence of chemical substance/ (in its absence), gene YGR288W (yeast gene YGR288W, ratio of DNA chip fluorescence intensity to that without chemical substance): 0.9
The level of expressed mRNA in the presence of chemical substance/ (ratio to absence of chemical substance) (yeast gene YHL028W): 1.5
The level of expressed mRNA in the presence of chemical substance/ (ratio to absence of chemical substance) (yeast gene YHL046C): 1.1
The level of expressed mRNA in the presence of chemical substance/The level of expressed mRNA in the absence of chemical substance (yeast gene YHL047C): 2.6
The level of expressed mRNA in the presence of chemical substance/The level of expressed mRNA in the absence of chemical substance (yeast gene YHR004C): 0.9
The level of expressed mRNA in the presence of chemical substance/The level of expressed mRNA in the absence of chemical substance (yeast gene YHR071W): 0.8
The level of expressed mRNA in the presence of chemical substance/The level of expressed mRNA in the absence of chemical substance (yeast gene YHR139C): 1.6
The level of expressed mRNA in the presence of chemical substance/The level of expressed mRNA in the absence of chemical substance (yeast gene YHR142W): 1.3
The level of expressed mRNA in the presence of chemical substance/ (in its absence), gene YHR210C (yeast gene YHR210C, ratio of DNA chip fluorescence intensity to that without chemical substance): 0.5
The level of expressed mRNA in the presence of chemical substance/ (in its absence), gene YIL006W (yeast gene YIL006W, ratio of DNA chip fluorescence intensity to that without chemical substance): 0.9
The level of expressed mRNA in the presence of chemical substance/ (ratio to absence of chemical substance) (yeast gene YIL011W): 0.6
